Key:
RPMI-8226 = conditions: RPMI-8226, 48 h
NCI-H23 = conditions: NCI-H23, 48 h
MDA-MB-435 [1] = conditions: MDA-MB-435, 48 h
SK-MEL-28 = conditions: for TGI: SK-MEL-28, 48 h
OVCAR-8 = conditions: OVCAR-8, 48 h
NCI/ADR-RES = conditions: 48 h
SK-OV-3 = conditions: SK-OV-3, 48 h
CAKI-1 = conditions: for TGI: CAKI-1, 48 h
MDA-MB-231/ATCC [2] = conditions: 48 h
BT-549 = conditions: for TGI: BT-549, 48 h
Leukemia = Leukemia subpanel
[3] = test system: panel of 60 cancer cell lines; conditions: for MG_MID TGI: full panel (last line of Table S2)
LOX IMVI = test: cells; conditions: Homo sapiens, 48 h; for CC50: read-out: LC50, LOX IMVI, 48 h
MDA-MB-435 [4] = test: cells; conditions: Homo sapiens, MDA-MB-435, 48 h; for CC50: read-out: LC50, MDA-MB-435, 48 h
UACC-257 = test: cells; conditions: Homo sapiens, UACC-257, 48 h; for CC50: read-out: LC50, UACC-257, 48 h
OVCAR-3 = test: cells; conditions: Homo sapiens, OVCAR-3, 48 h
MDA-MB-231/ATCC [5] = test: cells; conditions: Homo sapiens, MDA-MB-231, 48 h; for GI50: MDA-MB-231/ATCC, 48 h; for CC50: read-out: LC50, MDA-MB-231/ATCC, 48 h
HS 578T = test: cells; conditions: Homo sapiens, 48 h; for GI50: HS 578T; for CC50: read-out: LC50
[6] = test system: Non-small cell lung cancer; test: cells; conditions: Homo sapiens; for GI50: read-out: MG_MID GI50; for CC50: read-out: MG_MID LC50
Melanoma = test: cells; conditions: Homo sapiens; for GI50: read-out: MG_MID GI50; for CC50: read-out: MG_MID LC50
Ovarian cancer = test: cells; conditions: Homo sapiens; for GI50: read-out: MG_MID GI50; for CC50: read-out: MG_MID LC50
A549/ATCC = test: NCI-60 SRB screen; conditions: for TGI: 48 h; for GI50: Homo sapiens, A549, 48 h
NCI-H322M = test: NCI-60 SRB screen; conditions: 48 h; for GI50 / CC50: Homo sapiens; for CC50: read-out: LC50, NCI-H322M, 48 h
ACHN = test: NCI-60 SRB screen; conditions: 48 h; for growth GP: 10 μM; for GI50 / CC50: Homo sapiens; for CC50: read-out: LC50, ACHN, 48 h
Colon cancer = test: NCI-60 SRB screen, subpanel; conditions: for MG_MID TGI: Colon cancer subpanel; for GI50 / CC50: Homo sapiens; for GI50: read-out: MG_MID GI50; for CC50: read-out: MG_MID LC50
MDA-MB-231 cell line = test: Annexin V-FITC/propidium iodide flow cytometry; assay type: cell-based, human; conditions: 24 h
Experimental: Similarly to Figure 3, Figure 4 showcases the flow cytometric assessment of compounds effects on apoptosis induction on the MDA-MB-231 cell line after 24 h of incubation with tested structures. For this cell line, based on previous results, higher concentrations of tested compounds were chosen: 5 and 10 μM. […] At the same time, compound 12b showcased 7.3% of early and late apoptotic cells, 1.2% of necrotic cells in 5 μM concentration, and 13.8% and 22.3% in 10 μM concentration, consequently.
To conduct induction of apoptosis on MCF-7 and MDA-MB-231 cell lines, three compounds with the lowest IC50 values were selected (2b, 12b, 14b). The concentration of these compounds depended on the cell line. For MCF-7 cell line concentrations of 1 and 5 μM were used, while for MDA-MB-231 cell line concentrations were 5 and 10 μM. For both cell lines doxorubicin was used as a reference compound in 1 and 5 μM concentrations. This study was evaluated using a flow cytometer (BD FACSCanto II, Becton Dickinson Biosciences Systems, San Jose, CA, USA) and Annexin V binding Apoptosis Detection Kit II (BD Biosciences, San Diego, CA, USA). Cells were seeded in 6-well culture plates cultured in accordance with the previously described methodology. The medium was removed from wells and then cells were washed with PBS. A cell suspension was prepared in the binding buffer provided in the kit at a concentration of 1 × 10^6 cells/mL. A total of 100 µL of cell suspension was collected from each sample and transferred to the tubes. Afterwards, 5 µL of Annexin V-FITC and 4 µL of propidium iodide (PI) were added to each tube and then the tubes were incubated in the dark for 15 min at room temperature. After incubation, the suspension was supplemented to 300 µL with a binding buffer and immediately read in a BD FACSCanto II flow cytometer (Becton Dickinson Biosciences, San Jose, CA, USA), where 10,000 events per sample were measured. Results were analyzed using FACSDiva Software Version 6.1.3. (BD Biosciences Systems, San Jose, CA, USA).

## CC(C)C(C(=O)O)N1C(=O)/C(=C/C=C/c2ccc([N+](=O)[O-])o2)SC1=S (stereo not shown) [5b, 3-Methyl-2-((Z)-5-((E)-3-(5-nitrofuran-2-yl)allylidene)-4-oxo-2-thioxothiazolidin-3-yl)butanoic acid]
RPMI-8226
  TGI: 1.49 µM
NCI-H23
  TGI: 3.41 µM
MDA-MB-435 [1]
  TGI: 2.17 µM
SK-MEL-28; SK-MEL-28, 10 μM, 48 h
  growth GP: -95.39%
SK-MEL-28
  TGI: 2.83 µM
OVCAR-8
  TGI: 4.78 µM
NCI/ADR-RES
  TGI: 4.13 µM
SK-OV-3
  TGI: 10.7 µM
CAKI-1; CAKI-1, 10 μM, 48 h
  growth GP: -97.14%
CAKI-1
  TGI: 2.46 µM
MDA-MB-231/ATCC [2]
  TGI: 3.03 µM
BT-549; BT-549, 10 μM, 48 h
  growth GP: -98.16%
BT-549
  TGI: 2.14 µM
Leukemia
  MG_MID TGI: 3.77 µM
[3]; 10 μM, 48 h
  Positive cytostatic effect (ratio of cell lines with GP from 0 to 50 to total number): 2/55
[3]; 10 μM, 48 h, one dose
  Mean growth: -73.80%
[3]
  MG_MID TGI: 3.53 µM
LOX IMVI
  GI50: 1.16 µM
  CC50: 5.33 µM
MDA-MB-435 [4]
  GI50: 0.85 µM
  CC50: 5.01 µM
UACC-257
  GI50: 1.57 µM
  CC50: 6.8 µM
OVCAR-3
  GI50: 1.34 µM
MDA-MB-231/ATCC [5]
  GI50: 1.56 µM
  CC50: 5.9 µM
HS 578T
  GI50: 2.09 µM
  CC50: > 100 µM
[6]
  GI50: 1.8 µM
  CC50: 20.1 µM
Melanoma
  GI50: 1.25 µM
  CC50: 5.59 µM
Ovarian cancer
  GI50: 1.92 µM
  CC50: 17.4 µM
A549/ATCC
  TGI: 3.83 µM
  GI50: 1.86 µM
NCI-H322M
  TGI: 3.88 µM
  GI50: 1.82 µM
  CC50: 8.29 µM
ACHN
  growth GP: -99.54%
  TGI: 2.64 µM
  GI50: 1.35 µM
  CC50: 5.19 µM
Colon cancer
  MG_MID TGI: 2.48 µM
  GI50: 1.03 µM
  CC50: 7.06 µM

## CCCC(C(=O)O)N1C(=O)/C(=C/C=C/c2ccc([N+](=O)[O-])o2)SC1=S (stereo not shown) [4b, 2-((Z)-5-((E)-3-(5-Nitrofuran-2-yl)allylidene)-4-oxo-2-thioxothiazolidin-3-yl)pentanoic acid]
RPMI-8226
  TGI: 5.11 µM
NCI-H23
  TGI: 4.11 µM
MDA-MB-435 [1]
  TGI: 3.31 µM
SK-MEL-28
  TGI: 3.51 µM
OVCAR-8
  TGI: 4.64 µM
NCI/ADR-RES
  TGI: 4.96 µM
SK-OV-3
  TGI: 18.7 µM
CAKI-1
  TGI: 3.70 µM
MDA-MB-231/ATCC [2]
  TGI: 4.29 µM
BT-549
  TGI: 3.37 µM
Leukemia
  MG_MID TGI: 9.43 µM
[3]; 10 μM, 48 h
  Positive cytostatic effect (ratio of cell lines with GP from 0 to 50 to total number): 4/55
[3]; 10 μM, 48 h, one dose
  Mean growth: 36.52%
[3]
  MG_MID TGI: 5.85 µM
LOX IMVI
  GI50: 1.59 µM
  CC50: 6.11 µM
MDA-MB-435 [4]
  GI50: 1.62 µM
  CC50: 6.77 µM
UACC-257
  GI50: 1.96 µM
  CC50: 14.8 µM
OVCAR-3
  GI50: 2.18 µM
MDA-MB-231/ATCC [5]
  GI50: 2.21 µM
  CC50: 8.33 µM
HS 578T
  GI50: 1.87 µM
  CC50: > 100 µM
[6]
  GI50: 2.37 µM
  CC50: 29.3 µM
Melanoma
  GI50: 1.67 µM
  CC50: 7.32 µM
Ovarian cancer
  GI50: 3.12 µM
  CC50: 23 µM
A549/ATCC
  TGI: 5.40 µM
  GI50: 2.22 µM
NCI-H322M
  TGI: 14.2 µM
  GI50: 3.72 µM
  CC50: 38.1 µM
ACHN
  TGI: 3.44 µM
  GI50: 1.72 µM
  CC50: 6.87 µM
Colon cancer
  MG_MID TGI: 3.41 µM
  GI50: 1.73 µM
  CC50: 6.48 µM

## O=C(O)CCN1C(=O)/C(=C/C=C/c2ccc([N+](=O)[O-])o2)SC1=S [12b, 3-((Z)-5-((E)-3-(5-Nitrofuran-2-yl)allylidene)-4-oxo-2-thioxothiazolidin-3-yl)propanoic acid]
MDA-MB-231 cell line; MDA-MB-231, 5 μM
  combined apoptotic cells: 7.3%
  necrotic cells: 1.2%
MDA-MB-231 cell line; MDA-MB-231, 10 μM
  combined apoptotic cells: 13.8%
  necrotic cells: 22.3%
RPMI-8226
  TGI: 4.48 µM
NCI-H23
  TGI: 3.37 µM
MDA-MB-435 [1]
  TGI: 2.48 µM
SK-MEL-28
  TGI: 3.05 µM
OVCAR-8
  TGI: 7.11 µM
NCI/ADR-RES
  TGI: 4.28 µM
SK-OV-3
  TGI: 16.1 µM
CAKI-1
  TGI: 2.74 µM
MDA-MB-231/ATCC [2]
  TGI: 3.24 µM
BT-549
  TGI: 2.88 µM
Leukemia
  MG_MID TGI: 2.52 µM
[3]; 10 μM, 48 h
  Positive cytostatic effect (ratio of cell lines with GP from 0 to 50 to total number): 4/55
[3]; 10 μM, 48 h, one dose
  Mean growth: -62.05%
[3]
  MG_MID TGI: 4.69 µM
LOX IMVI
  GI50: 0.58 µM
  CC50: 4.34 µM
MDA-MB-435 [4]
  GI50: 1.16 µM
  CC50: 5.32 µM
UACC-257
  GI50: 1.81 µM
  CC50: 9.21 µM
OVCAR-3
  GI50: 1.36 µM
MDA-MB-231/ATCC [5]
  GI50: 1.7 µM
  CC50: 6.15 µM
HS 578T
  GI50: 1.45 µM
  CC50: > 100 µM
[6]
  GI50: 2.59 µM
  CC50: 25.9 µM
Melanoma
  GI50: 1.14 µM
  CC50: 5.56 µM
Ovarian cancer
  GI50: 2.05 µM
  CC50: 17.7 µM
A549/ATCC
  TGI: 12.4 µM
  GI50: 3.21 µM
NCI-H322M
  TGI: 19.8 µM
  GI50: 7.06 µM
  CC50: 44.7 µM
ACHN
  growth GP: -99.00%
  TGI: 2.97 µM
  GI50: 1.61 µM
  CC50: 5.46 µM
Colon cancer
  MG_MID TGI: 2.93 µM

## CCCCC(C(=O)O)N1C(=O)/C(=C/C=C/c2ccc([N+](=O)[O-])o2)SC1=S (stereo not shown) [6b, 2-((Z)-5-((E)-3-(5-nitrofuran-2-yl)allylidene)-4-oxo-2-thioxothiazolidin-3-yl)hexanoic acid]
RPMI-8226
  TGI: 6.09 µM
NCI-H23
  TGI: 3.51 µM
MDA-MB-435 [1]
  TGI: 3.95 µM
SK-MEL-28
  TGI: 3.73 µM
OVCAR-8
  TGI: 4.86 µM
NCI/ADR-RES
  TGI: 5.61 µM
SK-OV-3
  TGI: 19.4 µM
CAKI-1
  TGI: 3.29 µM
MDA-MB-231/ATCC [2]
  TGI: 4.45 µM
BT-549
  TGI: 3.12 µM
Leukemia
  MG_MID TGI: 9.84 µM
[3]; 10 μM, 48 h
  Positive cytostatic effect (ratio of cell lines with GP from 0 to 50 to total number): 6/55
[3]; 10 μM, 48 h, one dose
  Range of growth: -99.30 to 46.65%
[3]
  MG_MID TGI: 6.27 µM
LOX IMVI
  GI50: 1.76 µM
  CC50: 6.37 µM
MDA-MB-435 [4]
  GI50: 1.81 µM
  CC50: 6.61 µM
UACC-257
  GI50: 1.93 µM
  CC50: 9.62 µM
OVCAR-3
  GI50: 2.23 µM
MDA-MB-231/ATCC [5]
  GI50: 2.27 µM
  CC50: 8.73 µM
HS 578T
  GI50: 3.38 µM
  CC50: > 100 µM
[6]
  GI50: 2.43 µM
  CC50: 38.7 µM
Melanoma
  GI50: 1.78 µM
  CC50: 7.07 µM
Ovarian cancer
  GI50: 3.32 µM
  CC50: 25.7 µM
A549/ATCC
  TGI: 5.86 µM
  GI50: 2.33 µM
NCI-H322M
  TGI: 15.0 µM
  GI50: 3.84 µM
  CC50: 43.9 µM
ACHN
  TGI: 3.48 µM
  GI50: 1.88 µM
  CC50: 6.47 µM
Colon cancer
  MG_MID TGI: 3.57 µM
  GI50: 1.81 µM
  CC50: 6.66 µM

— paper PMC12655351, “Synthesis and Anticancer Activity Evaluation of New 5-((5-Nitrofuran-2-yl)allylidene)-2-thioxo-4-thiazolidinones” (Pharmaceuticals, 2025)
